The values that follow come from patent publication US20100119609A1, “METHODS, COMPOSITIONS, AND FORMULATIONS FOR THE TREATMENT OF THYROID EYE DISEASE” (priority 2006, published 2010).

The conditions of series [1]: compared with albuterol 5, a short acting hydrophilic beta agonist; cited from earlier work.
The test system of series [2] is cultured human adipocytes. The series can be described thus: In vitro lipolysis assay (glycerol release) in cultured adipocytes. It is filed as cell-based. The settings on record: for increase in lipolysis relative to negative control: glycerol in Assay Buffer. As for the experimental part:
In the in vitro lipolysis assay, glycerol was detected in cell culture media via a spectrophotometric measurement after chemical oxidation with hydrogen peroxide. Glycerol was measured over a three hour time period. Levels of lipolysis in cultured human adipocytes were tested after exposure to a beta agonist alone, a glucocorticosteroid alone, or the combination of the two for one or more preincubation periods as described in more detail below.
Human subcutaneous adipocytes were used in the lipolysis assay. Adipose tissue was harvested from liposuction or lipectomy and pre-adipocytes were isolated as follows. Briefly, fat tissue was minced and incubated at 37° C. in Krebs-Ringer bicarbonate buffer containing 1% bovine serum albumin and 0.1% collagenase in an oxygen-rich shaking chamber (5% CO2; 75 strokes/min) for 1 hour. The suspension was filtered through a 400 tim nylon mesh and centrifuged for 1 mm at 100 g. The pre-adipocytes in the […] were washed twice with and then plated in 96 well plates at a density of cells/well. The pre-adipocytes were cultured in maintenance medium for seven days as they differentiated into adipocytes.
At −21 hours before the lipolysis assay, medium was removed from each well and replaced with 75 μl of Maintenance Medium containing appropriate drug or DMSO (vehicle) concentrations (see Experimental Design section below). Each test drug or control treatment was applied to 8 wells/group (12 treatment groups per 96-well plate). At −3 hours prior to the lipolysis assay, each well was washed two times with Wash Buffer (200 μl/wash), filled with test or control solutions made up in Assay Buffer (75 μl/well), and then incubated for three hours, i.e., until measurement of glycerol content in the Assay Buffer. For some groups, a drug was only added for the three hour incubation period (see Experimental and Control Groups Below).
The glycerol content of the Assay Buffer from each well following the incubation was used as an index for lipolysis, where an increase in glycerol indicated lipolysis. Glycerol levels were assayed colorimetrically via a commercial glycerol assay kit (Randox Laboratory, United Kingdom) and quantified by comparison to a glycerol serial dilution standard curve (3 μM-200 μM). Glycerol concentrations for each well were normalized to cell density.
In each of the following control or experimental groups n=8 corresponding to the glycerol measurements for 8 wells from a 96-well cell culture plate.

Where [3] appears, read: 18 hour incubation, Salmeterol 10^−6 M or 10^−8 M, Budesonide 10^−6 M, Isoproterenol 10^−6 M.
Setting [4] is: three hour incubation, isoproterenol 10^−6 M.

As for `OCc1cc(C(O)CNCCCCCCOCCCCc2ccccc2)ccc1O` (racemic) [Salmeterol, ±2-(hydroxymethyl)-4-[1-hydroxy-2-[6-(4-phenylbutoxy)hexylamino]ethyl]-phenol], the “lipophilicity relative to albuterol” value in series [1] was “at least 10,000 times”.
On to `CC(C)NCC(O)c1ccc(O)c(O)c1` (stereo not shown) [Isoproterenol, isoproterenol], for which, in series [2] (setting [3]), the “effect on lipolysis in cultured adipocytes” value (from here on “effect on lipolysis”) was “decreased lipolysis”. For the same molecule, in series [2] (setting [4]), the “increase in lipolysis relative to negative control” value is given as “about 2.5 fold”.
Regarding budesonide, the “effect on lipolysis” value in series [2] (setting [3]) is “slight suppression of lipolysis”. Besides, the “effect on lipolysis” value in series [2] (three hour incubation) is listed as “dose-dependent induction of lipolysis”. In series [2] (setting [4]), the “increase in lipolysis relative to negative control” value is on record as “up to 1.5 fold” and the “lipolysis compared with isoproterenol (positive control)” value is given as “lower than that observed for Isoproterenol”.
